The test system of this assay is ankle joint swelling of rats caused by sodium urate crystals. Put plainly: Acute plantar/ankle joint swelling of rat caused by sodium urate crystals. In kind it is in vivo. The note with it: X ± SD, n = 9. As for the experimental part:
A process of preparing sodium urate crystallization and a sodium urate solution is as follows: 2 g of uric acid are added into 400 mL of boiling water to obtain an uric acid solution; a pH value of the uric acid solution is adjusted to 7.4 by using NaOH (1N) to obtain an adjusted solution; the adjusted solution is heated to a temperature of 95° C. to obtain a heated solution; then the heated solution is cooled and stirred gently at a room temperature to obtain a cooled solution; the cooled solution is allowed to stand for 4-6 hours at 4° C. to precipitate flocculent precipitates; microcrystalline sodium urate is obtained by filtering, and the microcrystalline sodium urate is sterilized at a high temperature of 80° C. 1000 milligrams (mg) of the sodium urate are ground fully to obtain sodium urate powder, and the sodium urate powder is added into 20 mL of sterile physiological saline to prepare a suspension with a concentration of 50 g/L (5%).
A process of grouping and administration is as follows: rats are adaptively fed for 3 days and randomly divided into 7 groups based on body weights. The 7 groups include a model control group, a positive drug indomethacin group, a first group, a second group, and a third group, a first comparison group, and a second comparison group. One hour before inflammation, the positive drug indomethacin group is administered with indomethacin through gavage (10 mL/kg). The first group is immediately administered with the cold compress spray (0.1 mL for each rat) obtained in the embodiment 1 after modeling; the second group is immediately administered with the cold compress spray (0.1 mL for each rat) obtained in the embodiment 2 after modeling; the third group is immediately administered with the cold compress spray (0.1 mL for each rat) obtained in the embodiment 3 after modeling; the first comparison group is immediately administered with the cold compress spray (0.1 mL for each rat) obtained in the comparative embodiment 1 after modeling; the second comparison group is immediately administered with the cold compress spray (0.1 mL for each rat) obtained in the comparative embodiment 2 after modeling; and the model control group is immediately administered with an excipient (0.1 mL for each rat) after modeling. Furthermore, after inflammation, the first group, the second group, the third group, the first comparison group, and the second comparison group are administered with corresponding cold compress sprays again after measurements of joint swelling at 6, 12, and 24 hours.
A process of modeling is as follows: an area around an ankle joint of a right hind limb of each rat is marked with a marker pen, and a joint circumference is measured as a normal value using a plantar volume meter. 0.2 mL of 5% sodium urate suspension are injected (the joint of each rat is extended and a needle is inserted at 45 degrees) into a joint cavity on a dorsal side of the right ankle joint of each rat of each group. Here, the modeling of each group is completed.
Results of joint swelling are as follows: a volume of the right ankle joint of each rat at 6, 12, 24, and 48 hours after inflammation is measured.

On to `COc1ccc2c(c1)c(CC(=O)O)c(C)n2C(=O)c1ccc(Cl)cc1` [Indomethacin, indomethacin], for which, under “right ankle joint volume 6 h after inflammation”, the “Volume of after modeling, 6 h” value amounted to 2.42 ± 0.15 mL. The “Volume of after modeling, 12 h” value (right ankle joint volume 12 h after inflammation) was determined as 2.29 ± 0.30 mL. The “Volume of after modeling, 24 h” value (right ankle joint volume 24 h after inflammation) was 2.18 ± 0.09 mL. Also, the “Volume of after modeling, 48 h” value (right ankle joint volume 48 h after inflammation) is 2.16 ± 0.14 mL. Also, the Volume before modeling (right ankle joint volume, baseline before sodium urate injection) came to 2.12 ± 0.21 mL.

Values taken from patent US20250205184A1, “COLD COMPRESS SPRAY FOR RELIEVING GOUT AND PREPARATION METHOD THEREOF” (priority 2023, published 2025).
